Here are results for seven compounds from ChEMBL document CHEMBL1137022, “The Ssk1p response regulator and Chk1p histidine kinase mutants of Candida albicans are hypersensitive to fluconazole and voriconazole” (Antimicrob Agents Chemother, 2007).

Values after ≈ are worked out from the molar mass of the structure shown. Active and inactive are the calls of the source. No cut-off for these calls is given here.

Data set [1] has as its system Candida albicans. As to the kind of experiment: Fungistatic activity against Candida albicans CHK21 after 24 to 48 hrs by broth microdilution assay. Format: functional. On the technique in general: Dilution methods test growth across graded concentrations, often in twofold steps.
The test system of data set [2] is Candida albicans. Nature of the data set: Fungistatic activity against Candida albicans SSK21 after 24 to 48 hrs by broth microdilution assay. In kind it is functional.
In data set [3] the test system is Candida albicans. As to the kind of experiment: Ratio of MIC for Candida albicans CHK21 to MIC for Candida albicans SSK21. Format: functional.
For data set [4], the system named is Candida albicans. Nature of the data set: Fungicidal activity against Candida albicans SSK23 assessed as reduction in cell viability at MIC of SSK21/CHK21 after 24 hrs. Format: functional, organism-based.
In data set [5] the test system is Candida albicans. As to the kind of experiment: Fungicidal activity against wild type Candida albicans CAF2-1 assessed as reduction in cell viability at MIC of SSK21/CHK21 after 24 hrs. In kind it is functional, organism-based.
In data set [6] the test system is Candida albicans. Nature of the data set: Fungistatic activity against wild type Candida albicans CAF2-1 after 24 to 48 hrs by broth microdilution assay. Format: functional.
Data set [7] concerns Candida albicans. As to the kind of experiment: Fungicidal activity against Candida albicans SSK21 assessed as reduction in cell viability at 4 times MIC after 24 hrs. Format: functional, organism-based.
Data set [8] relates to Candida albicans. As to the kind of experiment: Fungicidal activity against wild type Candida albicans CAF2-1 assessed as reduction in cell viability at 4 times MIC of SSK21/CHK21 after 24 hrs. Format: functional, organism-based.
The subject of data set [9] is Candida albicans. As to the kind of experiment: Fungicidal activity against Candida albicans SSK21 assessed as reduction in cell viability at MIC after 24 hrs. Format: functional, organism-based.
The subject of data set [10] is Candida albicans. As to the kind of experiment: Fungistatic activity against Candida albicans CHK23 after 24 to 48 hrs by broth microdilution assay. Format: functional.
Data set [11] deals with Candida albicans. Nature of the data set: Fungicidal activity against Candida albicans CHK21 assessed as reduction in cell viability at 4 times MIC after 24 hrs. Format: functional, organism-based.
Data set [12] deals with Candida albicans. Nature of the data set: Fungicidal activity against Candida albicans CHK23 assessed as reduction in cell viability at 4 times MIC of SSK21/CHK21 after 24 hrs. Format: functional, organism-based.
The subject of data set [13] is Candida albicans. As to the kind of experiment: Fungicidal activity against Candida albicans CHK23 assessed as reduction in cell viability at MIC of SSK21/CHK21 after 24 hrs. Format: functional, organism-based.
Data set [14] deals with Candida albicans. Nature of the data set: Fungicidal activity against Candida albicans CHK21 assessed as reduction in cell viability at MIC after 24 hrs. Format: functional, organism-based.
In data set [15] the test system is Candida albicans. As to the kind of experiment: Fungicidal activity against Candida albicans SSK23 assessed as reduction in cell viability at 4 times MIC of SSK21/CHK21 after 24 hrs. In kind it is functional, organism-based.
The subject of data set [16] is Candida albicans. Nature of the data set: Fungistatic activity against Candida albicans SSK23 after 24 to 48 hrs by broth microdilution assay. In kind it is functional.
Data set [17] has as its system Candida albicans. Nature of the data set: Fungistatic activity against Candida albicans SLN1 HK mutant after 24 to 48 hrs by broth microdilution assay. In kind it is functional, organism-based.
Data set [18] concerns Candida albicans. Nature of the data set: Fungistatic activity against Candida albicans SKN7 mutant after 24 to 48 hrs by broth microdilution assay. In kind it is functional, organism-based.
Data set [19] deals with Candida albicans. Nature of the data set: Drug uptake in Candida albicans SSK21 at 3.6 ng/ml after 1 hrs by liquid scintillation counting relative to wild type Candida albicans CAF2-1. Format: ADME, organism-based.

Consider `CC(=O)N1CCN(c2ccc(OCC3COC(Cn4ccnc4)(c4ccc(Cl)cc4Cl)O3)cc2)CC1` (configuration not stated), for which the outcome in the data set on Candida albicans [1] and in the data set with Candida albicans [2] was Active.
Turning to `CC[C@H](C)C[C@H](C)CCCCCCCCC(=O)N[C@H]1C[C@@H](O)[C@@H](NCCN)NC(=O)[C@@H]2[C@@H](O)CCN2C(=O)[C@H]([C@H](O)CCN)NC(=O)[C@H]([C@H](O)[C@@H](O)c2ccc(O)cc2)NC(=O)[C@@H]2C[C@@H](O)CN2C(=O)[C@H]([C@@H](C)O)NC1=O`, the result with Candida albicans [1] and in the data set on Candida albicans [2] was Active.
`C[C@@H]1[C@H](O)[C@@H](C)/C=C/C=C/C=C/C=C/C=C/C=C/C=C/[C@H](O[C@@H]2O[C@H](C)[C@@H](O)[C@H](N)[C@@H]2O)C[C@@H]2O[C@](O)(C[C@@H](O)C[C@@H](O)[C@H](O)CC[C@@H](O)C[C@@H](O)CC(=O)O[C@H]1C)C[C@H](O)[C@H]2C(=O)O`: the outcome in the data set with Candida albicans [1] and in the data set with Candida albicans [2] was Active.
As to `Clc1ccc(COC(Cn2ccnc2)c2ccc(Cl)cc2Cl)c(Cl)c1` (configuration not stated), the outcome in the data set with Candida albicans [1] and in the data set with Candida albicans [2] was Active.
Take `OC(Cn1cncn1)(Cn1cncn1)c1ccc(F)cc1F` [FLUCONAZOLE]: the Ratio in the data set with Candida albicans [3] is reported as 30. Moreover, the result in the data set with Candida albicans [4], with Candida albicans [5], with Candida albicans [9], in the data set on Candida albicans [13] and in the data set with Candida albicans [14] was inactive. For the same compound, the MIC against Candida albicans [6] was found to be 16 µg/mL (≈ 52.2 µM); against Candida albicans [1], 1 µg/mL (≈ 3.27 µM); against Candida albicans [10] it was 16 µg/mL (≈ 52.2 µM); in the data set with Candida albicans [16] it was 0.25 µg/mL (≈ 0.816 µM); against Candida albicans [2] it was 0.032 µg/mL (≈ 0.104 µM). The result with Candida albicans [7], with Candida albicans [8], in the data set on Candida albicans [11], in the data set with Candida albicans [12] and with Candida albicans [15] was Active.
Take `C[C@@H](c1ncncc1F)[C@](O)(Cn1cncn1)c1ccc(F)cc1F` [VORICONAZOLE]: the result in the data set on Candida albicans [4], with Candida albicans [5], in the data set on Candida albicans [9], in the data set on Candida albicans [13] and in the data set on Candida albicans [14] was inactive. Moreover, the MIC worked out at 0.5 µg/mL (≈ 1.43 µM) against Candida albicans [6]; 0.015 µg/mL (≈ 0.0429 µM) against Candida albicans [1]; 1 µg/mL (≈ 2.86 µM) in the data set with Candida albicans [10]; 0.064 µg/mL (≈ 0.183 µM) against Candida albicans [16]; 0.008 µg/mL (≈ 0.0229 µM) against Candida albicans [2]. Besides, the outcome in the data set on Candida albicans [7], in the data set with Candida albicans [8], with Candida albicans [11], with Candida albicans [12], with Candida albicans [17] and in the data set with Candida albicans [18] was Active. Also, the outcome in the data set on Candida albicans [15] was Active.
For the compound `[3H]OC(Cn1cncn1)(Cn1cncn1)c1ccc(F)cc1F` [[3H]FLUCONAZOLE], the “fold change (FC)” value in the data set with Candida albicans [19] was found to be 2.

Broadly, the MIC is the lowest concentration found to suppress growth. A high value points to weaker potency.
